Experimental findings from patent US20160106106A1, “DRUG-RESISTANT MICROBE AND VARIANT MICROBE DISINFECTANT CONTAINING CHLOROUS ACID AQUEOUS SOLUTION” (HONBU SANKEI CO., LTD., priority 2013, published 2016) are described below.

Experiment [1] has as its system Campylobacter jejuni JCM2013 on chicken meat (breast meat). The protocol:
1) Enterohemorrhagic Escherichia coli O157: Escherichia coli O157 sakai strain (1996, RIMD0509952) 2) Campylobacter: Campylobacter jejuni JCM2013
2) Campylobacter: Campylobacter jejuni JCM2013 (selected medium: CCDA plate medium)
The selected medium was streaked. A single colony of tested microbes cultured for 48 hours at 37° C. in microaerophilic conditions was extracted with a platinum loop. The colony was then inoculated in a 50 mL×3 BHI medium, shaken and cultured under aerobic conditions for 48 hours at 37° C. (shake rate: 100 rpm).
Chicken meat (breast meat): About 2 kg of domestic (location unknown) chicken breast meat that was purchased the day before the tests was used.
Each cultured microbial solution was centrifuged (rate of centrifugation: 6000 rpm). The liquid medium of the supernatant was disposed. Then, the microbial solution prepared by diluting with sterilized saline to approximately 10^7 was put into a manually operated spray in the same amount to make a 10^6 microbe suspension.

The subject of experiment [2] is Microbes of the genus Bacillus. In words: Microbe disinfecting effect on microbes isolated from isolator, Bacillus. Type of experiment: cell-based. To be noted: average ± S.D. The protocol: (§1) In the present Example, since the isolator for raising microbe-free mice was contaminated by environmental microbes, microbes were isolated from the isolator, and microbe disinfecting effects were examined in vitro using various antiseptics of interest.
(§2) Three species of microbes were isolated to analyze 16SrDNA.
(1) A single colony of each isolated microbe that was cultured in a BHI agar medium was cultured for two days at 37° C. in 5 mL of BHI medium. […] (3) Each agent of interest was prepared by diluting with sterile ion exchange water to have a predetermined concentration. 9 mL of each diluent was dispensed into a sterilized test tube. (4) 1 mL of the microbial solution prepared in (2) was added to the agent-containing test tube. A vortex mixer was used to mix well. (5) 1 mL was sampled from the test tube of (4) at a predetermined time. The sampling was added to and mixed with 0.05 mol/L sodium thiosulfate solution for neutralization. (6) 1 mL of the solution after the neutralization treatment was spread on a petri dish. The solution was pour-plate cultured for 24 hours at 37° C. in a BHI agar medium. The number of surviving microbes that had grown was measured.
(§3) The operation was performed three times, and microbial disinfection was evaluated by average value±standard deviation (S. D.)

For experiment [3], the system named is contaminating microbes in urine (MDRP). As to the kind of experiment: Growth suppressing effect against contaminating microbes in urine (MDRP). Type of experiment: cell-based, Pseudomonas aeruginosa. To be noted: 10 ppm, 50 ppm, 100 ppm, FIGS. 5 and 6. The procedure:
(§4) The testing method was in accordance with the above-described Examples. The samples prepared as stated above were used.
(§5) Tests were conducted twice using similar samples.

Experiment [4] relates to Microbes of the genus Paenibacillus. As to the kind of experiment: Microbe disinfecting effect on microbes isolated from isolator, Paenibacillus. To be noted: average ± S.D. Type of experiment: cell-based. The procedure:
as §1, §2
(1) A single colony of each isolated microbe that was cultured in a BHI agar medium was cultured for two days at 37° C. in 5 mL of BHI medium. (2) After collecting microbes by centrifuging (3000×g, 4° C., 10 min) the culturedmicrobial solution, the microbes were washed twice with sterile saline (0.85%) to prepare a microbial solution of about 10^7 CFU/ml (Inoculam value). (3) Each agent of interest was prepared by diluting with sterile ion exchange water to have a predetermined concentration. 9 mL of each diluent was dispensed into a sterilized test tube. (4) 1 mL of the microbial solution prepared in (2) was added to the agent-containing test tube. A vortex mixer was used to mix well. (5) 1 mL was sampled from the test tube of (4) at a predetermined time. The sampling was added to and mixed with 0.05 mol/L sodium thiosulfate solution for neutralization. (6) 1 mL of the solution after the neutralization treatment was spread on a petri dish. The solution was pour-plate cultured for 24 hours at 37° C. in a BHI agar medium. The number of surviving microbes that had grown was measured.
as §3

The test system of experiment [5] is Escherichia coli O157 sakai strain (1996, RIMD0509952) on chicken meat (breast meat).
The test system of a further experiment is MRSA. As to the kind of experiment: Growth suppressing effect against contaminating microbes in urine (MRSA). Conditions: 10 ppm, 50 ppm, 100 ppm, FIG. 6. Type of experiment: cell-based, Staphylococcus aureus. The procedure: as §4, §5
Where [6] appears, read: Sampling 3: after soaking 30 minutes at 400 ppm, raw material:liquid = 1:10.
Where [7] appears, read: Sampling 4: after soaking 30 minutes at 400 ppm, washing and draining.
Where [8] appears, read: Sampling 5: after soaking 30 minutes at 400 ppm, washing, storage for 24 hours at 4° C.

Like-named read-outs stand apart in the source and are kept apart here.

Regarding `OCl` [Sodium hypochlorite], the “number of Campylobacter on the chicken meat” value in experiment [1] (setting [6]) is reported as 2.5 × 10^5 cfu/mL; in experiment [1] (setting [7]) it was 3.2 × 10^5 cfu/mL; in experiment [1] (setting [8]), 4.8 × 10^5 cfu/mL. Further, the “number of surviving microbes” value is 5.60 ± 0.22 log10 cfu/mL in experiment [2] (200 ppm, 5 min); 5.53 ± 0.62 log10 cfu/mL in experiment [2] (200 ppm, 10 min); 5.34 ± 0.34 log10 cfu/mL in experiment [2] (200 ppm, 30 min); 5.55 ± 0.45 log10 cfu/mL in experiment [2] (500 ppm, 5 min); 5.49 ± 0.28 log10 cfu/mL in experiment [2] (500 ppm, 10 min); 4.85 ± 0.32 log10 cfu/mL in experiment [2] (500 ppm, 30 min). In addition, the “number of surviving microbes” value in experiment [2] (1000 ppm, 5 min) is 3.55 ± 0.46 log10 cfu/mL; in experiment [4] (200 ppm, 5 min), 4.80 ± 0.25 log10 cfu/mL; in experiment [4] (200 ppm, 10 min), 4.86 ± 0.41 log10 cfu/mL; in experiment [4] (200 ppm, 30 min), 3.75 ± 0.53 log10 cfu/mL; in experiment [4] (500 ppm, 5 min) it was 4.07 ± 0.12 log10 cfu/mL; in experiment [4] (500 ppm, 10 min), 3.61 ± 0.09 log10 cfu/mL. In addition, the “number of surviving microbes” value in experiment [4] (500 ppm, 30 min) is reported as 3.61 ± 0.26 log10 cfu/mL; in experiment [4] (1000 ppm, 5 min), below 2.00 log10 cfu/mL; in experiment [4] (1000 ppm, 10 min), below 2.00 log10 cfu/mL; in experiment [4] (1000 ppm, 30 min), below 2.00 log10 cfu/mL. Moreover, the growth suppressing effect entry (in experiment [3]; with MRSA) was “growth suppressing effect” each time. For the same compound, the results for the “number of E. coli O-157 on the chicken meat” value in experiment [5] (setting [6]), in experiment [5] (setting [7]) and in experiment [5] (setting [8]) were 3.3 × 10^4 cfu/mL, 1.6 × 10^4 cfu/mL and 5.0 × 10^4 cfu/mL, respectively.

For Sodium chlorite, the growth suppressing effect result (in experiment [3]; in the experiment with MRSA) was “growth suppressing effect” throughout.
